What is called EC50 is the concentration that produces a half-maximal response.

The target in experiment [1] is T1, mu opioid receptor (CHO-hMOR cell membranes) (Homo sapiens, UniProt P35372).
T1 construct: purchased Receptor Biology, Inc. (Baltimore, Md.); host or cells: CHO cells (recombinant expression)
The experiment in a line: Mu Opioid Receptor Functional Assay: [35S]GTPγS Binding in CHO-hMOR Cell Membranes, Versions 1 and 2. It counts as biochemical. As to conditions: for MOR GTP binding assay_v1 (% I): version 1, % inhibition of agonist-stimulated GTPγS binding; for MOR GTP assay_v1 % of Basal: version 1, basal binding = 100%. The method, boiled down:
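CHO-hMOR membranes (10 μg/ml) on WGA SPA beads, preincubated 45 min at 25 °C, then incubated with 0.5 nM [35S]GTPγS in HEPES pH 7.6, 5 mM MgCl2, 100 mM NaCl, 1 mM DTT, 1 mM EDTA. Non-specific binding with 10 μM unlabeled GTPγS; agonist EC50 from concentration-response, antagonism as inhibition of 1 μM SNC80-stimulated binding.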
(In general: GTPγS is a poorly hydrolysed GTP analogue; its binding reports G protein activation.)

Another experiment addresses T2, delta opioid receptor (Rattus norvegicus, UniProt P33533).
T2 construct: from tissue; host or cells: forebrain of male Wistar rats
Description: Rat Brain Delta Opioid Receptor Binding Assay ([3H]DPDPE). As to conditions: rat forebrain membranes, margin of error 10-20%, read-out: r Ki δ. The method, boiled down:
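Rat (male Wistar) forebrain membranes in 50 mM Tris-HCl pH 7.4 with 5 mM MgCl2, incubated with ~4 nM [3H]DPDPE for 2.5 h at 25 °C. Bound ligand collected by filtration and scintillation counting. Single-concentration data given as % inhibition of specific binding; concentration series fitted to Ki.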

In the next experiment the target is T3, mu opioid receptor (Rattus norvegicus, UniProt P33535).
T3 construct: from tissue; host or cells: forebrain of male Wistar rats
The experiment in a line: Rat Brain Mu Opioid Receptor Binding Assay (and Version 2a, [3H]DAMGO). The settings on record: rat forebrain membranes, margin of error 10-20%, read-out: r Ki μ. The method, boiled down:
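Rat forebrain membranes from male Wistar rats in 50 mM Tris-HCl pH 7.4 with 5 mM MgCl2 incubated with 0.8 nM [3H]DAMGO for 2.5 h at 25° C., then filtered and counted. Data given as % inhibition of specific binding at single concentrations or as Ki from concentration series.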

The target in experiment [2] is T4, delta opioid receptor (CHO-hδ cell membranes) (Homo sapiens, UniProt P41143).
T4 construct: purchased Receptor Biology, Inc. (Baltimore, Md.); host or cells: CHO cells (recombinant expression)
Description: Delta Opioid Receptor Functional Assay: [35S]GTPγS Binding in CHO-hδ Cell Membranes, Version 1. Format: biochemical. As to conditions: read-out: DOR GTP-binding Assay_v1 EC50. The procedure:
CHO-hδ cell membranes were purchased from Receptor Biology, Inc. (Baltimore, Md.). 10 mg/ml of membrane protein suspended in 10 mM TRIS-HC pH 7.2, 2 mM EDTA, 10% sucrose.
Membranes were maintained at 4-8° C. A portion (1 ml) of membranes was added into 15 mL cold binding assay buffer. The assay buffer contained 50 mM HEPES, pH 7.6, 5 mM MgCl2, 100 mM NaCl, 1 mM DTT and 1 mM EDTA. The membrane suspension was homogenized with a Polytron for 2 times and centrifuged at 3000 rpm for 10 min. The supernent was then centrifuged at 18,000 rpm for 20 min. The pellet was saved in a tube and 10 ml assay buffer was added into the tube. The pellet and buffer were mixed with a Polytron.
The pellet membranes (20 μg/ml) were preincubated with SPA (10 mg/ml) at 25° C. for 45 min in the assay buffer. The SPA (5 mg/ml) coupled with membranes (10 μg/ml) was then incubated with 0.5 nM [^35S]GTPγS in the same HEPES buffer containing 50 μM GDP in total volume of 200 μl. Increasing concentrations of receptor agonists were used to stimulate [^35S]GTPγS binding. The basal binding was tested in the absent agonists and no specific binding was tested in the present 10 μM unlabeled GTPγS. The data were analyzed on a Top counter.
Data The % of Basal=(stimulate−non specific)*100/(basal−non specific). EC50 values were calculated using a Prism program.

A further experiment concerns male CD-1 mice. Description: In Vivo Assay: Upper GI Tract Transit (MUGIT). The settings on record: Mus musculus, po, 1 h, dose 30 (mg), p.o., read-out: upper GI transit (% ctrl). How it is done:
Methods: The animals used in these studies were male CD-1 mice, ave. wt. ˜30 g. Mice were housed under 12 h/12 h light/dark cycle, food & water ad lib. On the day of the experiment mice were assigned to experimental groups, including one vehicle-only group (=control). At 30 min before administration of carmine dye, animals were dosed with vehicle or vehicle-plus-compound, mice were returned to their home cages after drug administration. After administration of carmine, the animals were either returned to their home cages (non-stressed) or individually placed in the same metal cages as used in the fecal output or entire GI tract transit to induce a novel environment stress. One hour after administration of carmine, mice were sacrificed by cervical dislocation, the abdomen opened midventrally, the small intestine from pylorus to cecum was removed, the mesentery divided in order to lay the intestine straight & flat—without stretching. The total length of intestine and the length of carmine-dyed intestine were measured in order to determine the percent of the upper GI tract over which transit had occurred as follows: {(Length of carmine-dyed intestine)/(Total length of intestine)}×100=% upper GI transit. The data expressed were group means±SD (or s.e.m.) and data expressed as % of control.

In experiment [3] the target is T5, delta opioid receptor (NG108-15 cell membranes) (Mus musculus, UniProt P32300).
T5 construct: NG108-15 cell membranes were purchased from Applied Cell Sciences (Rockville, Md.); host or cells: NG108-15 cells (membranes purchased)
The experiment in a line: Delta Opioid Receptor Functional Assay: [35S]GTPγS Binding in NG108-15 Cell Membranes, Version 2. It counts as biochemical. The settings on record: NG108-15 cell membranes, version 2. The procedure:
NG108-15 cell membranes were purchased from Applied Cell Sciences (Rockville, Md.). 8 mg/ml of membrane protein suspended in 10 mM TRIS-HC pH 7.2, 2 mM EDTA, 10% sucrose.
Membranes were maintained at 4-8° C. A portion (1 ml) of membranes was added into 10 ml cold binding assay buffer. The assay buffer contained 50 mM Tris, pH 7.6, 5 mM MgCl2, 100 mM NaCl, 1 mM DTT and 1 mM EGTA. The membrane suspension was homogenized with a Polytron for 2 times and centrifuged at 3000 rpm for 10 min. The supernent was then centrifuged at 18,000 rpm for 20 min. The pellet was saved in a tube and 10 ml assay buffer was added into the tube. The pellet and buffer were mixed with a Polytron.
The pellet membranes (75 μg/ml) were preincubated with SPA (10 mg/ml) at 25° C. for 45 min in the assay buffer. The SPA (5 mg/ml) coupled with membranes (37.5 μg/ml) was then incubated with 0.1 nM [^35S] GTPγS in the same Tris buffer containing 100 μM GDP in total volume of 200 μl. Increasing concentrations of receptor agonists were used to stimulate [^35S] GTPγS binding. The basal binding was tested in the absent agonists and no specific binding was tested in the present 10 μM unlabeled GTPγS. The data were analyzed on a Top counter.
[formula] % Inhibition=(% stimulation by 1 μM SNC80−% stimulation by 1 μM SNC80 in presence of test compound)×100/(% Stimulation by 1 μM SNC80−100) % of Basal=(stimulate−non specific)*100/(basal−non specific). EC50 values were calculated using GraphPad Prism.

Experiment [4] has as its target T6, human delta subtype 2 opioid receptor (Homo sapiens, UniProt P41143).
T6 construct: purchased Perkin Elmer RBHODM400UA; host or cells: Chinese Hamster Ovary cells (recombinant expression)
The experiment in a line: Human Delta Opioid Receptor Binding Assay (CHO membranes, 3H-Naltrindole). As to conditions: read-out: hKi δ. The method, boiled down: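 Filtration binding on CHO-cell membranes expressing the human receptor, in 50 mM Tris pH 7.5 with 5 mM MgCl2, 30 min at room temperature; 3H-naltrindole diluted to 6 nM before mixing 1:1 with compound. Nonspecific binding defined with 1 μM unlabelled naltrindole; inhibition relative to no-inhibitor wells.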

The target of another experiment is T7, human mu opioid receptor (Homo sapiens, UniProt P35372).
T7 construct: purchased Perkin Elmer RBHOMM400UA; host or cells: Chinese Hamster Ovary cells (recombinant expression)
The experiment in a line: Human Mu Opioid Receptor Binding Assay (CHO membranes, 3H-Damgo). The settings on record: read-out: hKi μ. The method, boiled down:
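Membranes from CHO cells expressing human mu opioid receptor, 300 μg/mL, in 50 mM Tris pH 7.5, 5 mM MgCl2. Incubated with compound and ³H-Damgo (3.6 nM before mixing) for 2 h at room temperature, filtered, counted by scintillation. Nonspecific binding with 1 μM unlabelled Damgo.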

T2 sequence (P33533 whole entry): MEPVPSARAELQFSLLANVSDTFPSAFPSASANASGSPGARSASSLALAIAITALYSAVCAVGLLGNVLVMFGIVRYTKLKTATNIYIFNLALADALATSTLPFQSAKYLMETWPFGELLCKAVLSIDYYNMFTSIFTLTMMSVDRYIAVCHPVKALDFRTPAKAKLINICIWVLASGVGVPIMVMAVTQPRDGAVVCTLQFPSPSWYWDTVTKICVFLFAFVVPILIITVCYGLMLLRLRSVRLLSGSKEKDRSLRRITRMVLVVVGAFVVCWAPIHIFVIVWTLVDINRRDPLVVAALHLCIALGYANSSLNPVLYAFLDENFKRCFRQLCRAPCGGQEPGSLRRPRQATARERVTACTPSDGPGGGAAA
T1 sequence (P35372 whole entry): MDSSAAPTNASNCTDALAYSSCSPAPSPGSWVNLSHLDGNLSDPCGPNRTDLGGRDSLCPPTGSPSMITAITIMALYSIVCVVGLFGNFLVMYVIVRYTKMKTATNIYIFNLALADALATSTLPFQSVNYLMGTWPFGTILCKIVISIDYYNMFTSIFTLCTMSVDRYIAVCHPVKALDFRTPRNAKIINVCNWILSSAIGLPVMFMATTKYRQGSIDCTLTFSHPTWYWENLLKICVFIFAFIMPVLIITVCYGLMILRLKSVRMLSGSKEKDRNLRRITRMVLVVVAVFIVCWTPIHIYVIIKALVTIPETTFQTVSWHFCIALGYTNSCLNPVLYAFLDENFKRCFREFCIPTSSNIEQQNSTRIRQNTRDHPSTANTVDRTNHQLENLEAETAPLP
T7 sequence (P35372 whole entry): as above
T4 sequence (P41143 whole entry): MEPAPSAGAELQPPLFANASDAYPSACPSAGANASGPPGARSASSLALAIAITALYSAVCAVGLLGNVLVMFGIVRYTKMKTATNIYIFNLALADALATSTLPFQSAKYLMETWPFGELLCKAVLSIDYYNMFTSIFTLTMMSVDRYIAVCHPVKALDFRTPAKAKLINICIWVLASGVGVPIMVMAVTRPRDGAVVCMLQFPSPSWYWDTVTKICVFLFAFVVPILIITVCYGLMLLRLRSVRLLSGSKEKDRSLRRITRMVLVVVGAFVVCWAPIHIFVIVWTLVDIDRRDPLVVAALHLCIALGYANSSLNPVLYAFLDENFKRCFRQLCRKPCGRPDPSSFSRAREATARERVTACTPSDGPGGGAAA
T6 sequence (P41143 whole entry): as above
T3 sequence (P33535 whole entry): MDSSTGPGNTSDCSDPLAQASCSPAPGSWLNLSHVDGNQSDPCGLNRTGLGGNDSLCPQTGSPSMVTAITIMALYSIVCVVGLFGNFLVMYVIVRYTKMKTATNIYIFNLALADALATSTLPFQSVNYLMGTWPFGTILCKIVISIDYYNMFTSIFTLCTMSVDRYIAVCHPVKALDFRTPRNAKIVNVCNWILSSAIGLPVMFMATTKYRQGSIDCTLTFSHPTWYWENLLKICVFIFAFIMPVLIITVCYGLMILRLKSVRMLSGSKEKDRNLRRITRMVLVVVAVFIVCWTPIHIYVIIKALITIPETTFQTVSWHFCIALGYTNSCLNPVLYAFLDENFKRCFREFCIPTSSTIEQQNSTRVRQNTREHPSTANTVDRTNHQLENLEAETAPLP
T5 sequence (P32300 whole entry): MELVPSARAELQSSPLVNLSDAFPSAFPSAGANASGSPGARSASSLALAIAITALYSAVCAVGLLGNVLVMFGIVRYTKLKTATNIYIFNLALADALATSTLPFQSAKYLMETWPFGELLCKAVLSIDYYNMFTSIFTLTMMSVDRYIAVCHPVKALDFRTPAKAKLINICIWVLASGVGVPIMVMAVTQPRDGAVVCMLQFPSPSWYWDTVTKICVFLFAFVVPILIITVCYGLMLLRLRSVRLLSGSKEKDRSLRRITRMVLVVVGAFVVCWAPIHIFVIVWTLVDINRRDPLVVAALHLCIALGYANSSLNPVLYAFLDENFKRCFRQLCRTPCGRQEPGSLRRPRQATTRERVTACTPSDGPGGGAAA

As to `CCN(C(=O)[C@@H](N)Cc1c(C)cc(O)cc1C)[C@H](c1nc(-c2ccccc2)c[nH]1)C(C)C` [Cpd 170], the “MOR GTP binding assay_v1 (% I)” value in experiment [1] is on record as 26.00%. Further, the Ki was 32.6 nM at delta opioid receptor and 0.48 nM on mu opioid receptor. Further, in experiment [2], the EC50 worked out at 115 nM.
On to `Cc1cc(O)cc(C)c1C[C@H](N)C(=O)N(Cc1ccc(C(=O)O)o1)[C@@H](C)c1nc(-c2ccccc2)c[nH]1` [Cpd 287], for which the response vs control in vivo at 30 mg with male CD-1 mice came out at 66.4%. The results for the Ki on delta opioid receptor and at mu opioid receptor were 0.14 nM and 0.13 nM, respectively. Besides, the EC50 in experiment [3] ([35S]GTPγS, read-out: DOR GTP-binding Assay_v2_ EC50) was above 10000 nM. In experiment [3] (% inhibition of agonist-stimulated GTPγS binding), the “DOR GTP-binding Assay v2 (% I)” value stood at 84.50%.
In the case of `Cc1cc(O)cc(C)c1C[C@H](N)C(=O)N(Cc1nc(-c2ccccc2Cl)c(C)[nH]1)C(C)C` [Cpd 155], in experiment [1], the “MOR GTP binding assay_v1 (% I)” value is listed as 14.32% and the “MOR GTP assay_v1 % of Basal” value amounted to 655.93%. In addition, the EC50 in experiment [2] turned out to be 150 nM. For the same molecule, the Ki in experiment [4] was found to be 345 nM.
Take `Cc1cc(O)cc(C)c1C[C@H](N)C(=O)N(Cc1nc(-c2ccccc2C(F)(F)F)c(C)[nH]1)C(C)C` [Cpd 151]: in experiment [1], the “MOR GTP binding assay_v1 (% I)” value was 24.19% and the “MOR GTP assay_v1 % of Basal” value is on record as 606.38%. Moreover, the EC50 in experiment [2] was 350 nM. The Ki in experiment [4] turned out to be 1300 nM.
The matching figures for `Cc1cc(O)cc(C)c1C[C@H](N)C(=O)N(Cc1nc(-c2ccc(Cl)cc2)c(C)[nH]1)C(C)C` [Cpd 147]: 1.00%, 779.35%, 51 nM and 241 nM.
Consider `Cc1cc(O)cc(C)c1C[C@H](N)C(=O)N(Cc1nc(-c2ccc3ccccc3c2)c(C)[nH]1)C(C)C` [Cpd 150], for which, in experiment [1], the “MOR GTP binding assay_v1 (% I)” value is listed as 53.35% and the “MOR GTP assay_v1 % of Basal” value is on record as 476.63%. In addition, the EC50 in experiment [2] amounted to 49 nM. Further, the Ki in experiment [4] is 992 nM.
For `Cc1cc(O)cc(C)c1C[C@H](N)C(=O)N(Cc1nc(-c2ccccc2F)c(C)[nH]1)C(C)C` [Cpd 117], in experiment [1], the “MOR GTP binding assay_v1 (% I)” value came to 3.31% and the “MOR GTP assay_v1 % of Basal” value is on record as 816.16%. Further, on human mu opioid receptor, the Ki worked out at 0.24 nM. Further, the EC50 in experiment [2] was 37 nM. Further, the Ki in experiment [4] turned out to be 118 nM.
For `Cc1cc(O)cc(C)c1C[C@H](N)C(=O)N(Cc1nc(-c2cncnc2)c(C)[nH]1)C(C)C` [Cpd 131], in experiment [1], the “MOR GTP binding assay_v1 (% I)” value is given as 28.64% and the “MOR GTP assay_v1 % of Basal” value stood at 391.98%. On human mu opioid receptor, the Ki worked out at 3.1 nM. Also, the EC50 in experiment [2] stood at 99 nM. The Ki in experiment [4] is 675 nM.
On to `CCN(C(=O)[C@@H](N)Cc1c(C)cc(C(N)=O)cc1C)[C@@H](C)c1nc(-c2ccccc2)c[nH]1` [Cpd 197], for which the “MOR GTP binding assay_v1 (% I)” value in experiment [1] is 1.00%. Further, the “MOR GTP assay_v1 % of Basal” value in experiment [1] amounted to 582.00%. Further, the Ki on delta opioid receptor came out at 4.27 nM; on mu opioid receptor it was 0.9 nM. In experiment [2], the EC50 was 140 nM.
`C[C@@H](c1nc(-c2ccccc2)c[nH]1)N(C)C(=O)[C@@H](N)Cc1ccc(C(N)=O)cc1` [Cpd 202]: in experiment [1], the “MOR GTP binding assay_v1 (% I)” value was found to be 1.00% and the “MOR GTP assay_v1 % of Basal” value stood at 529.00%. The Ki at delta opioid receptor came to 31.5 nM. Besides, on mu opioid receptor, the Ki amounted to 5.9 nM. Also, in experiment [2], the EC50 was 1580 nM.
Take `Cc1cc(O)cc(C)c1C[C@H](N)C(=O)N(Cc1nc(-c2cccc(CO)c2)c(C)[nH]1)C(C)C` [Cpd 130]: in experiment [1], the “MOR GTP binding assay_v1 (% I)” value worked out at 1.62% and the “MOR GTP assay_v1 % of Basal” value is given as 866.39%. The Ki on human mu opioid receptor turned out to be 1.6 nM. The EC50 in experiment [2] turned out to be 16 nM. Besides, the Ki in experiment [4] came out at 712 nM.
For the molecule `Cc1cc(O)cc(C)c1C[C@H](N)C(=O)N(Cc1nc(-c2ccc(C(F)(F)F)cc2)c(C)[nH]1)C(C)C` [Cpd 149], in experiment [1], the “MOR GTP binding assay_v1 (% I)” value amounted to 1.00% and the “MOR GTP assay_v1 % of Basal” value came to 753.53%. Further, in experiment [2], the EC50 worked out at 44 nM. In addition, the Ki in experiment [4] was 408 nM.
